Measurements: publication PMC5764437, “Discovery of novel, orally bioavailable, antileishmanial compounds using phenotypic screening” (PLoS Neglected Tropical Diseases, 2017)
Where two headings read alike, the source gives them in different places.

Assays:
[1] = Liver microsomal stability, rat; conditions: liver microsomes, pH 7.4
Experimental: (§1) One part of 10 mM DMSO compound stock was mixed with 4 parts of acetonitrile to make 2 mM diluted compound stock in DMSO and acetonitrile. 29.1 µL diluted compound stock was added to 2.3 mL liver microsomal solution and vortexed to make microsomal solution with compound. […] For the 0 h time point, 450 µL pre-cooled (4 °C) internal standard (10 µM warfarin in methanol) was added to the first three columns before the reaction was initiated. 1.25 ml of microsome assay solution A (Fisher Scientific, #NC9255727) was combined with 0.25 ml of solution B (Fisher Scientific, #NC9016235) in 3.5 ml of potassium phosphate buffer (0.1 M, pH 7.4). 45 µL of this A+B solution was added to each well of the 96-well storage plate (reaction plate). Liquid in the first 3 columns was moved to another storage plate (quenched plate). The reaction plate was then sealed, incubated at 37 °C, and shaken at a speed of 60 rpm. Time points (0.5 h, 1 h, 2 h) were taken. At each time point, 450 µL pre-cooled internal standard was added to 3 rows in the reaction plate, and the liquid was then transferred to the quenched plate. […] 200 µL supernatant was transferred to a 96-well plate and analyzed by ultra-performance liquid chromatography-mass spectrometry (UPLC-MS) (Waters Inc.). The compounds and internal standard were detected by selected ion recording (SIR).

[2] = Mouse plasma protein binding assay (Rapid Equilibrium Dialysis); type: in vitro ADME; conditions: mouse, mouse plasma, pH 7.4; for fraction unbound at 4 h, 0.8 μM: Conc. 0.8 μM; for fraction unbound at 4 h, 4 μM: Conc. 4 μM; for fraction unbound at 4 h, 20 μM: Conc. 20 μM
Experimental: (§2) A Rapid Equilibrium Dialysis (RED) Plate (Thermo Scientific, catalog #, PI-90007) was used to determine the percentage of compound binding to mouse plasma proteins (Thermo Scientific, catalog #, 50642085). The positive control for this experiment was propranolol HCl (295.807 g/mol) and the internal standard was warfarin in methanol (2 μM). 10 mM stocks of compound in DMSO were diluted with DMSO and acetonitrile to three different intermediate concentrations: high (2 mM), medium (0.4 mM) and low (0.08 mM) concentration in DMSO:acetonitrile (1:4, v:v). 10 mM stock of propranolol in DMSO were diluted to 0.4 mM concentration in DMSO:acetonitrile (1:4 v:v).
(§3) In 10 Eppendorf tubes, the control (10 μL) or each of three compound dilutions (10 μL) were each added to separate aliquots of 990 μL mouse plasma. Potassium phosphate buffer (500 μL, 0.1 M, pH 7.4, 37 °C) was placed in every white well of the RED plate and each plasma/compound mixture was added to each of 3 RED wells (300 μL). The RED plate holds triplicate samples of one control (final concentration […]) and one compound (final concentrations: 20 μM, 4 μM, […]). The RED Plate was sealed and incubated at 37 °C shaking at 250 rpm for 4 hours. After incubation, aliquots (50 μL) from each well in the RED plate were transferred to an assay plate (pION Inc., MA, #110323). In order to create a uniform matrix in every well of the assay plate, plasma (50 μL) was added to each of the wells that already contained buffer and potassium phosphate buffer (50 μL) was added to each of the wells that already contained plasma/compound. Pre-cooled internal standard (300 μL) was added to the assay plate to quench the reaction. The quenched plate was then centrifuged (5810R, Eppendorf, Westbury, NY) at 3000 rpm for 20 minutes.
(§4) The percentage of free compound [1] and bound compound [2] was calculated usng the AUC ratio of compound to warfarin from the SIR spectra. For reporting data, % Free = Concentration buffer/Concentration plasma *100 %, and % Bound = 100% - % Free.

mouse plasma proteins = assay: as above; type: in vitro ADME; conditions: across tested concentrations
Experimental: as §2, §3, §4

[3] = Liver microsomal stability, mouse; conditions: female, liver microsomes, pH 7.4
Experimental: as §1

[4] = Single oral dose pharmacokinetic study in mice; type: in vivo, mouse; conditions: single oral gavage; for half-life: read-out: t½ (converted)
Experimental: Female BALB/c mice of 17-21 grams were purchased from Charles River Laboratories (Wilmington, MA). Food and water were provided ad libitum. […] All animal received 100 ± 20 µL of compound solution in formulation (10/10/40/40: […] Animals were euthanized via cardiac puncture at 48 h post injection. Blood samples were treated with 10 µL of EDTA sodium solution to prevent coagulation. […] The supernatant (40 µL) was collected and mixed with 2 parts of Milli-Q water and centrifuged again at 4000 rpm for 20 min at 4 °C. Plasma concentration was determined with a partially validated LC/MS-MS assay with multiple reaction monitoring detection (AB Sciex, Framingham, MA). The summary of the LC/MS/MS method is provided below. The assay lower limit of quantification (LLOQ) was 4.57 nM in plasma. […] The Area Under the Concentration-Time Curve (AUC) was calculated with the linear trapezoidal, linear interpolation rule using mean concentrations and nominal times. The standard error of the AUC to the last time point (AUClast) was generated using the sparse sampling option. The terminal elimination rate (Lambda_z) and half-life (HL_Lambda_z) was determined using the default “Best Fit” method. The predicted AUC from the last time point to infinity (AUCINF_pred) was calculated as AUClast plus Clast(pred)/Lambda_z. Clearance (CL or CL/F) was calculated as Dose/AUCINF_pred. If ≥2/3rds of the observed concentrations were below LLOQ, the mean concentration was treated missing. The calibration curve was obtained as follows. The calibration was done using the same biological matrices to ensure similar recovery. […] All concentrations in the calibration range must be no more than 20% deviation. If there were any points with more than 20% deviation on the high or low end, the calibration range would be truncated. If an outlier occurred in the middle of the curve, the whole curve would be re-done. The signal: noise of the compound peak at the H/LLOQ must be greater than 5. […] The samples were tested on the same or the second day.

[5] = female, BALB/c, mouse, plasma, po, 25 mg/kg
[6] = female, BALB/c, mouse, plasma, po, 50 mg/kg

SMILES	half-life at 20 μM [1] [h]	fraction unbound at 4 h, 0.8 μM [2]	fraction unbound at 4 h, 4 μM [2]	fraction unbound at 4 h, 20 μM [2]	Binding to mouse plasma proteins (mouse plasma proteins) [%]	half-life at 20 μM [3] [h]	Cmax [4, 5] [µM]	Tmax [4, 5] [h]	half-life ([4]; female, BALB/c, mouse, plasma, po, 25 mg/kg, 25 mg/kg, plasma) [h]	AUC ([4]; female, BALB/c, mouse, 25 mg/kg, plasma) [µM·h]	CL ([4]; 25 mg/kg) [mL/min/kg]	Vd ([4]; 25 mg/kg) [L/kg]	t½ ([4]; 25 mg/kg, plasma) [h]	Cmax [4, 6] [µM]	Tmax [4, 6] [h]	half-life ([4]; female, BALB/c, mouse, plasma, po, 50 mg/kg, 50 mg/kg, plasma) [h]	AUC ([4]; female, BALB/c, mouse, 50 mg/kg, plasma) [µM·h]	CL ([4]; 50 mg/kg) [mL/min/kg]	Vd ([4]; 50 mg/kg) [L/kg]	Cmax ([4]; 50 mg/kg, plasma) [µM]
COc1ccc(-c2c(C(F)(F)F)oc3c(CN4CCN(C)CC4)c(O)ccc3c2=O)cc1OC [Compound 4]	> 4	0.54	0.599	0.534	< 50	> 4	3.2	≤ 1	3	16.7	52.2	14.2	3.2	–	–	–	–	–	–	–
Cc1ccc(-c2nc3ccccc3s2)cc1NC(=O)c1cc([N+](=O)[O-])c(N2CCN(C)CC2)cc1Cl [Compound 5]	> 4	0.65	0.591	0.586	< 50	> 4	–	–	–	–	–	–	–	6.49	4	7.1	83.2	19.2	11.8	6.5
